The results in this text go back to patent publication US20240398824A1, “Inhibition Of Rip Kinases For Treating Neurodegenerative Disorders” (The Johns Hopkins University, priority 2018, published 2024).

Experiment [1] relates to primary microglia activated with α-synuclein PFFs. In words: qPCR of A1 astrocyte inducers (TNFα, IL-1α, C1q) in primary microglia activated with α-synuclein PFFs. The class given is cell-based, mouse. Conditions: inhibitor 10 μM 30 min, then α-synuclein PFFs 1 μg/mL 4 h; in words. As to the method: α-synuclein purification and α-synuclein PFFs preparation: Recombinant mouse α-synuclein proteins were purified as previously described with an IPTG-independent inducible pRK172 vector system (Nat Protoc. 9(9): 2135-46 (2014)). Endotoxin was depleted by ToxinEraser endotoxin removal kit (Genscript, NJ, USA). α-synuclein PFFs (5 mg ml^−1) was prepared in PBS while stirring with a magnetic stirrer (1,000 rpm at 37° C.). After a week of incubation of the α-synuclein protein, aggregates were diluted to 0.1 mg ml^−1 with PBS and sonicated for 30 s (0.5 s pulse on/off) at 10% amplitude (Branson Digital sonifier, Danbury, CT, USA). α-synuclein PFFs was validated using atomic force microscopy and transmission electron microscopy, and the ability to induce phospho-serine 129 α-synuclein (p-α-synSer129) was confirmed using immunostaining. α-synuclein PFFs was stored at −80° C. until use. […]
Comparative qPCR: The total RNA from cultured cells was extracted with RNA isolation kit (Qiagen, CA) following the instruction provided by the company. RNA concentration was measured spectrophotometrically using NanoDrop 2000 ([…]). […] The expression levels of targeted genes were normalized to the expression of β-actin and calculated based on the comparative cycle threshold Ct method (2-ΔΔCt).
(Quantitative PCR measures a nucleic acid by following its amplification.)

The test system of experiment [2] is α-synuclein PFFs-induced PD mice. The experiment can be described thus: α-synuclein PFFs-induced PD mouse model, IHC of ventral midbrain / SN. The class given is in vivo. As to the method: Study rationale and objectives: The purpose of this study was to investigate the anti-PD efficacy of Gefitinib, RIPK2 inhibitor, in the α-synuclein PFF model PD. To this end, α-synuclein PFF were injected into the striatum of NOD2 KO or RIPK2 KO. α-synuclein PFFs-induced PD mice were orally treated with Gefitinib (Gef) (30 mg/kg, once daily) after 1 month striatal α-synuclein PFF injection for 5 months and tissues were analyzed.
Mouse strain for stereotaxic α-synuclein PFFs injection: NOD2 or RIPK2 KO mice was obtained from the Jackson Laboratories (Bar Harbor, ME). All housing, breeding, and procedures were performed according to the NIH Guide for the Care and Use of Experimental Animals and approved by the Johns Hopkins University Animal Care and Use Committee.
α-synuclein protein purification and PFF preparation: Recombinant mouse α-synuclein proteins were purified as previously described with an IPTG-independent inducible pRK172 vector system. Endotoxin was depleted by ToxinEraser endotoxin removal kit (Genscript, NJ, USA). α-synuclein PFFs (5 mg ml^−1) was prepared in PBS while stirring with a magnetic stirrer (1,000 rpm at 37° C.). After a week of incubation of the α-synuclein protein, aggregates were diluted to 0.1 mg ml^−1 with PBS and sonicated for 30 s (0.5 s pulse on/off) at 10% amplitude (Branson Digital sonifier, Danbury, CT, USA). α-synuclein PFFs was validated using atomic force microscopy and transmission electron microscopy, and the ability to induce phospho-serine 129 α-synuclein (p-α-synSer129) was confirmed using immunostaining. α-synuclein PFFs was stored at −80° C. until use.
Stereotaxic α-synuclein PFFs injection and Immunohistochemistry (IHC): For stereotaxic injection of α-synuclein PFFs, 3 months old NOD2 KO or RIPK2 KO male and female mice were anesthetized with xylazene and ketamine. An injection cannula (26.5 gauge) was applied stereotaxically into the striatum (STR) (mediolateral, 2.0 mm from bregma; anteroposterior, 0.2 mm; dorsoventral, 2.6 mm) unilaterally into the right hemisphere. The infusion of 2 μL α-synuclein PFFs ([…] in PBS) or the same volume of PBS was performed at a rate of 0.2 μL per min. After the final dose, the injection cannula was maintained in the STR for additional 5 min for a complete absorption of the α-synuclein PFFs or PBS then slowly removed from the mouse brain. The head skin was closed by suturing and wound healing and recovery were monitored following surgery. For IHC analysis, animals were perfused and fixed intracardially with ice-cold PBS followed by 4% paraformaldehyde at 3 months after striatal α-synuclein PFFs injections. The brain was removed and processed for immunohistochemistry. IHC for pS129-α-synuclein immunoreactivity was performed at 3 months after the unilateral striatal α-synuclein PFFs injections. Treatment of Gefitinib was accomplished after one month of unilateral striatal α-synuclein PFFs injection, once daily.

For `CC(C)(C)S(=O)(=O)c1ccc2nccc(Nc3n[nH]c4ccc(F)cc34)c2c1` [GSK583, 6-(tert-butylsulfonyl)-N-(5-fluoro-1H-indazol-3-yl) quinolin-4-amine], the “release of A1 astrocyte inducer (TNFα, IL-1α, C1q) from microglia” value in experiment [1] is given as “significantly suppress”.

On to `COc1cc2ncnc(Nc3ccc(F)c(Cl)c3)c2cc1OCCCN1CCOCC1` [Gefitinib], for which the “release of A1 astrocyte inducer (TNFα, IL-1α, C1q) from microglia” value in experiment [1] was “significantly suppress”. Besides, the “# of p-αSyn positive signal in the SN” value in experiment [2] (Gefitinib 30 mg/kg oral once daily, PFF-injected mice, Veh + PFFs 32.14 ± 1.93, mean ± SEM, n = 5) is given as 16.49 ± 2.01. The “# of microglia in the SN” value in experiment [2] (Gefitinib 30 mg/kg oral once daily, PFF-injected mice, Veh + PFFs 1138.72 ± 91.48, mean ± SEM, n = 5) amounted to 409.15 ± 94.27. Further, the “microglia activation in the ventral midbrain” value in experiment [2] (IHC, vs non-treated PD mice, in words) was “suppresses microglia activation”. The “α-synuclein PFFs induced pathologies in mice” value in experiment [2] (oral administration, in words) is given as “significantly rescues α-synuclein PFFs induced pathologies”. The “LB pathology (pS129-α-synuclein immunoreactivity)” value in experiment [2] (ventral midbrain, IHC, vs non-treated PD mice, in words) is recorded as “significantly ameliorates LB pathology”.
